In data set [1] the target is T1, aldose reductase (human recombinant, expressed in SF 9 cells) (Homo sapiens, UniProt P15121). Nature of the data set: Aldose reductase assay, reduction of glucose to sorbitol (NADPH oxidation, absorbance at 340 nm). The data set is classed as biochemical. Here is the method: (§1) Aldose reductase assays were as described in Nishimura C., Yamaoka T., Mizutani M., Yamashita K., Akera T., Tanimoto T., Purification And Characterization Of The Recombinant Human Aldose Reductase Expressed In Baculovirus System, Biochem. Biophys. Acta, Jun. 24, 1991; 1078(2):171-8.
(§2) Briefly, Dimesna (0-20 μM) was incubated at 37° C. with aldose reductase (0.0016 units, human recombinant, expressed in SF 9 cells) and NADPH (0.15 mM) in sodium phosphate buffer (100 mM, pH 6.2). To initiate assays, glucose (10-150 mM) was added to reactions and the decrease in absorbance at 340 nm (oxidation of NADPH) was monitored. Assays were run in duplicate or triplicate. Slopes were calculated using Varian-Cary software package 2.0 and averaged. In all cases errors were 4% or less. Lineweaver Burk analysis (Enzyme Kinetics, version 1.61) was used to calculate inhibition constants.

Another data set has as its system humans. Conditions: cited from earlier work.
In data set [2] the target is T1, aldose reductase (human recombinant, expressed in SF 9 cells). Nature of the data set: Aldose reductase assay, NADPH dependent reduction of glyceraldehyde. The data set is classed as biochemical. Conditions: substrate glyceraldehyde 0.050-6 mM, 37° C., Lineweaver Burk analysis, read-out: Ki, inhibition of aldose reductase catalyzed reduction of glyceraldehyde to aldose. Here is the method:
as §1, §2
Aldose reductase assays were as described above. Dimesna (0-30 mM) was evaluated for its effect on the NADPH dependent reduction of glyceraldehyde (0.050-6 mM) to aldose at 37° C. Assays were run in duplicate or triplicate. Slopes were calculated using Varian-Cary software package 2.0 and averaged. In all cases errors were 4% or less. Lineweaver Burk analysis (Enzyme Kinetics, version 1.61) was used to calculate inhibition constants.

Another data set relates to dogs. Conditions: intravenous; cited from earlier work.
The test system of the next data set is mice. Conditions: intravenous; cited from earlier work.
The conditions of data set [3]: accepted value; cited from earlier work.

Where only a bound is given, the exact number is not on record here.

Turning to `O=S(=O)([O-])CCSSCCS(=O)(=O)[O-].[Na+].[Na+]` [Dimesna, disodium 2,2'-dithiobis ethane sulfonate], the “Type of inhibition of the aldose reductase reaction” value in data set [1] (Lineweaver Burk plots nearly parallel, glucose and glyceraldehyde substrates) is on record as “uncompetitive inhibition”. For the same compound, the inhibition constant (Ki) (usually a measure of affinity in units of concentration, obtained from inhibition or displacement) in data set [1] (substrate glucose 10-150 mM, NADPH 0.15 mM, pH 6.2, 37° C., Lineweaver Burk analysis, read-out: Ki, inhibition of aldose reductase catalyzed reduction of glucose to sorbitol) was 32 µM; in data set [2], 15.5 µM. Further, the “Dose administered with no adverse effects” value is “exceeding 15 g/m^2” in the data set on humans, over 3750 mg/kg with dogs and over 3750 mg/kg with mice.
On to `[Cl-].[Na+]` [common table salt], for which, in data set [3], the “oral LD50” value is on record as 3750 mg/kg.

The values above are taken from patent publication US6031006A, “Method of treating diabetic nephropathy” (BioNumerik Pharmaceuticals, Inc., priority 1999, dated 2000).
